Laboratory results as given in US20030194784A1, “DNA encoding methymycin and pikromycin” (priority 2001, published 2003).

Columns and labels:
[1] = biological target: A. eutrophus PHA synthase (Cupriavidus necator, UniProt P23608); settings: read-out: apparent Km value (substrate concentration at half-optimal velocity); enzyme concentration constant at 0.95 mg/ml; 40 or 200 μl assay volumes; estimated from FIG. 10
Streptococcus pyogenes = experiment: Antibiotic activity by filter paper disc on agar plates; assay type: cell-based; settings: for inhibition zone around disc (antibiotic activity against Streptococcus pyogenes): 20 μL of 1.6 mM sample in MeOH on sterilized filter paper disc, Mueller-Hinton agar plates, overnight at 37° C.; for activity against Streptococcus pyogenes: purified compounds, S. pyogenes grown on Mueller-Hinton agar plates
Experimental: The antibiotic activity of a compound of formula (13) and (14) against Streptococcus pyogenes was examined by separately applying 20 μL of each sample (1.6 mM in MeOH) to sterilized filter paper discs which were placed onto the surface of S. pyogenes grown on Mueller-Hinton agar plates (Mangahas, 1996).

[2] = Storage stability of purified PHA synthase (activity remaining); assay type: physicochemical
Description: PHA synthase purified from insect cells appears to be relatively stable.

[3] = biological target: the molecule itself; experiment: size exclusion chromatography, native MW (about 100-160 kDa and about 50-80 kDa forms)

Row | Molecule | inhibition zone around disc (antibiotic activity against Streptococcus pyogenes) (Streptococcus pyogenes) | activity against Streptococcus pyogenes (Streptococcus pyogenes) | other results
1 | 3-hydroxybutyrate CoA [HBCoA] |  |  | Km [1]: 2500 µM
2 | CC[C@H]1OC(=O)[C@H](C)[C@@H](O[C@@H]2O[C@H](C)C[C@H](N(C)C)[C@H]2O)[C@@H](C)C[C@@H](C)C(=O)/C=C/[C@]1(C)O [compound of formula (1), methymycin] | clearly visible inhibition zones | clearly visible inhibition zones | 
3 | C[C@@H]1C[C@H](N(C)C)[C@@H](O)[C@H](O[C@H]2[C@@H](C)C[C@@H](C)C(=O)/C=C/[C@@H](C)[C@@H]([C@@H](C)O)OC(=O)[C@@H]2C)O1 [compound of formula (2), neomethymycin] | clearly visible inhibition zones | clearly visible inhibition zones | 
4 | CCC1OC(=O)C(C)C(OC2OC(C)CC(N(C)C)C2O[C@@H]2O[C@H](CO)[C@@H](O)[C@H](O)[C@H]2O)C(C)CC(C)C(=O)C=CC1(C)O (stereo partly drawn) [compound of formula (13), C-2′β-glucosylated methymycin] | no such clearings were discernible |  | 
5 | A. eutrophus PHA synthase (phbC gene product), produced in insect cells with a baculovirus vector (enzyme, The 64 kDa band; On the blots it was denatured (SDS-PAGE); The N-terminus is heterogeneous (starts at A7 or S10); also called PHB synthase; intact PHB synthase (band a)) AAASTQEGKSQPFKVTPGPFDPATWLEWSRQWQGTEGNGHAAASGIPGLDALAGVKIAPAQLGDIQQRYMKDFSALWQAMAEGKAEATGPLHDRRFAGDAWRTNLPYRFAAAFYLLNARALTELADAVEADAKTRQRIRFAISQWVDAMSPANFLATNPEAQRLLIESGGESLRAGVRNMMEDLTRGKISQTDESAFEVGRNVAVTEGAVVFENEYFQLLQYKPLTDKVHARPLLMVPPCINKYYILDLQPESSLVRHVVEQGHTVFLVSWRNPDASMAGSTWDDYIEHAAIRAIEVARDISGQDKINVLGFCVGGTIVSTALAVLAARGEHPAASVTLLTTLLDFADTGILDVFVDEGHVQLREATLGGGAGAPCALLRGLELANTFSFLRPNDLVWNYVVDNYLKGNTPVPFDLLFWNGDATNLPGPWYCWYLRHTYLQNELKVPGKLTVCGVPVDLASIDVPTYIYGSREDHIVPWTAAYASTALLANKLRFVLGASGHIAGVINPPAKNKRSHWTNDALPESPQQWLAGAIEHHGSWWPDWTAWLAGQAGAKRAAPANYGNARYRAIEPAPGRYVKAKA |  |  | synthase activity remained after storage ([2]; after 7 weeks stored at −20° C. in the presence of 50% glycerol): approximately 75%; synthase activity remained after storage ([2]; after 7 weeks stored in liquid N2): approximately 50%; binding result [3]: binds
